In publication PMC11111408, “Concurrent inhibition of oncogenic and wild-type RAS-GTP for cancer therapy” (Nature, 2024):
Values joined by “and” are separate entries in the source; they are usually repeats but may differ in a detail not shown here. Identical values can stand only once.

Columns and labels:
[1] = Oral bioavailability in mice (LC-MS/MS of blood); type: in vivo; settings: mouse, whole blood, read-out: Oral Bioavailability m%F
[2] = test system: Capan-1 cells; experiment: Cellular ERK phosphorylation (pERK); type: cell-based; settings: Homo sapiens; Capan-1 (KRAS^G12V PDAC); (95% CI)
[3] = molecular target: T1, KRAS^G12V (Homo sapiens, UniProt P01116+P62937, G12V); experiment: Biochemical RAS–RAF (BRAF RBD) disruption, TR-FRET; parameters: His6-TEV (N); made in house; host or cells: BL21(DE3) Escherichia coli
Source text: Time-resolved fluorescence resonance energy transfer (TR-FRET) was used as previously described to assess disruption of the interactions between wild-type RAS or the mutant oncogenic RAS proteins and the RAS-binding domain of BRAF, and to assess the induction of interactions between the RAS proteins and CYPA[12].

[4] = molecular target: T1, KRAS^G12V; experiment: RAS binding affinity of compound-bound CYPA (Kd2), SPR; parameters: His6-TEV (N); made in house; host or cells: BL21(DE3) Escherichia coli; settings: steady state, (95% CI)
[5] = test system: Capan-1 cells; experiment: Cell proliferation (CTG); type: cell-based; settings: Homo sapiens; Capan-1, CTG; (95% CI)
Protocol: (§1) Alternatively, cells were seeded in round-bottom ultra-low attachment 96-well plates, centrifuged at 1,000 rpm for 10 min to pellet the cells, and incubated overnight or up to 72 h to allow for 3D spheroid formation. […] Cell viability was determined by CellTiter-Glo 2.0 reagent (2D CTG) (Promega, G9243) or 3D CellTiter-Glo reagent (3D CTG) (Promega, G9683) according to the manufacturer’s protocols. Luminescence was detected using a SpectraMax M5 Plate Reader (Molecular Devices) of Perkin Elmer Enspire. Luminescence signal was normalized to vehicle-treated wells (normalized signal (%) = (luminescence (treated)/mean luminescence (vehicle)) × 100%). […] Data were plotted as log [inhibitor (M)], and a four-parameter sigmoidal concentration response model was fitted to the data to calculate EC50. […] Pa16C MEK1 mutant cells were evaluated by live-cell counting using Calcein AM and a SpectraMax i3X multi-mode detection platform (Molecular Devices). Growth percentages were calculated by normalizing the treated cell counts to their respective untreated cell counts.

[6] = test system: A375 cells; experiment: Cellular ERK phosphorylation (pERK); type: cell-based, human; settings: Homo sapiens, A-375; A375 (BRAF^V600E)
[7] = test system: A375 cells; experiment: Cell proliferation (CTG); type: cell-based, human; settings: Homo sapiens, A-375; A375, CTG; (95% CI)
Protocol: as §1

[8] = molecular target: T2, CYPA (Homo sapiens, UniProt P62937); experiment: CYPA binding affinity (Kd1), SPR; settings: steady state, (95% CI)
T2 construct: His6-TEV-AviTag-CYPA (full-length); His6-TEV (N); made in house; host or cells: BL21(DE3) Escherichia coli
Protocol: The binding affinity of compounds for CYPA (Kd1) was assessed by SPR on a Biacore 8K instrument as previously described.

[9] = test system: KRAS^G12D PDAC cell lines; experiment: Western blot time course of RAS signalling in KRAS^G12D PDAC cell lines; type: cell-based, human; settings: KRAS^G12D PDAC cells in culture, 2 h to 48 h
Protocol: Total ERK and vinculin were used as loading controls. […] Source Data
Cells were lysed with MSD Tris Lysis Buffer (MSD, R60TX-2) or a buffer of 1% Triton X-100, 20 mM Tris-HCl, 150 mM NaCl, and 1 mM EDTA, both supplemented with protease and phosphatase inhibitors. Lysates were cleared by centrifugation and quantified by BCA assay (Pierce, 23225). […] Image Studio Lite (Version 5.2.5) and Image Lab (Version 6.1.0 build 7) software were used for data analysis.

[10] = test system: Pa16C cells expressing MEK1 mutants; experiment: Proliferation (Calcein AM) of Pa16C cells expressing MEK1 mutants; type: cell-based, human

SMILES: CCn1c(-c2cccnc2[C@H](C)OC)c2c3cc(ccc31)-c1cccc(c1)C[C@H](NC(=O)[C@H](C(C)C)N(C)C(=O)[C@H]1CCN(C(C)=O)C1)C(=O)N1CCC[C@H](N1)C(=O)OCC(C)(C)C2 [Compound 1]
- bioavailability [1]: 5%
- EC50 [2]: 0.632 µM
- EC50 [3]: 4.4 µM
- Kd [4]: 6.55 µM
- EC50 [5]: 0.965 µM
- EC50 [6]: > 10 µM
- EC50 [7]: 6.41 µM
- Kd [8]: 0.862 µM

SMILES: C#Cc1c(F)ccc2cc(O)cc(-c3ncc4c(N5CC6CCC(C5)N6)nc(OC[C@@]56CCCN5C[C@H](F)C6)nc4c3F)c12 [MRTX1133, reference compound]
- pERK suppression over time [9]: rebounded by 48 h
- Proliferation of Pa16C cells expressing MEK1 mutant constructs ([10]; MEK1E102-I103del, inhibitor 0.046 nM): 125.8 and 122.1 and 120.54 and 95.05
- Proliferation of Pa16C cells expressing MEK1 mutant constructs ([10]; MEK1E102-I103del, inhibitor 0.412 nM): 113.2 and 113.4 and 113.54 and 82.15
- Proliferation of Pa16C cells expressing MEK1 mutant constructs ([10]; MEK1E102-I103del, inhibitor 1.235 nM): 110 and 114.8 and 110.17 and 83.99
- Proliferation of Pa16C cells expressing MEK1 mutant constructs ([10]; MEK1E102-I103del, inhibitor 3.704 nM): 89.5 and 104.7 and 87.18 and 77.13
- Proliferation of Pa16C cells expressing MEK1 mutant constructs ([10]; MEK1K57N, inhibitor 0.046 nM): 113.3 and 92 and 123.41 and 119.36
- Proliferation of Pa16C cells expressing MEK1 mutant constructs ([10]; MEK1K57N, inhibitor 0.412 nM): 108.9 and 110.1 and 130.35 and 129.87
- Proliferation of Pa16C cells expressing MEK1 mutant constructs ([10]; MEK1K57N, inhibitor 1.235 nM): 119.4 and 130.2 and 127.87 and 133.27
- Proliferation of Pa16C cells expressing MEK1 mutant constructs ([10]; MEK1K57N, inhibitor 3.704 nM): 112.2 and 126.4 and 116.3 and 122.06
- Proliferation of Pa16C cells expressing MEK1 mutant constructs ([10]; MEK1Q56P, inhibitor 0.046 nM): 116.6 and 110 and 105 and 106.72
- Proliferation of Pa16C cells expressing MEK1 mutant constructs ([10]; MEK1Q56P, inhibitor 0.412 nM): 113.89 and 123.5 and 112.2 and 128.92
- Proliferation of Pa16C cells expressing MEK1 mutant constructs ([10]; MEK1Q56P, inhibitor 1.235 nM): 123.05 and 112.4 and 128.9 and 131.08
- Proliferation of Pa16C cells expressing MEK1 mutant constructs ([10]; MEK1Q56P, inhibitor 3.704 nM): 108.45
- Proliferation of Pa16C cells expressing MEK1 mutant constructs ([10]; MEK1S218D/S222D, inhibitor 0.046 nM): 106.52 and 116.35 and 117.97 and 101.1
- Proliferation of Pa16C cells expressing MEK1 mutant constructs ([10]; MEK1S218D/S222D, inhibitor 0.412 nM): 107.39 and 112.33 and 125.31 and 99.77
- Proliferation of Pa16C cells expressing MEK1 mutant constructs ([10]; MEK1S218D/S222D, inhibitor 1.235 nM): 101.82 and 118.84 and 117.94 and 98.18
- Proliferation of Pa16C cells expressing MEK1 mutant constructs ([10]; MEK1S218D/S222D, inhibitor 3.704 nM): 93.55 and 118.16 and 86.21 and 93.79
- Proliferation of Pa16C cells expressing MEK1 mutant constructs ([10]; MEK1WT, inhibitor 0.046 nM): 112.3 and 102.3 and 116.1 and 105.31 and 102.33
- Proliferation of Pa16C cells expressing MEK1 mutant constructs ([10]; MEK1WT, inhibitor 0.412 nM): 119.4 and 93.5 and 109.72 and 103.89 and 97.19
- Proliferation of Pa16C cells expressing MEK1 mutant constructs ([10]; MEK1WT, inhibitor 1.235 nM): 110 and 85.2 and 91.69 and 105.96 and 84.4
- Proliferation of Pa16C cells expressing MEK1 mutant constructs ([10]; MEK1WT, inhibitor 3.704 nM): 88.3 and 70.7 and 61.19
